Reference: paper PMC8224972, “Thiazide and other Cl-benzenesulfonamide-bearing clinical drug affinities for human carbonic anhydrases” (PLoS ONE, 2021)

Tested on: TSC (thiazide sensitive co-transporter)
Test: not given
Design: method as in PMID 10894798
Details: in the presence of 2 mM Cl-; cited from earlier work

Row | SMILES | IC50
1 | CN1C(CSCC(F)(F)F)Nc2cc(Cl)c(S(N)(=O)=O)cc2S1(=O)=O (stereo not shown) [Compound 7, polythiazide] | 20 nM
2 | NS(=O)(=O)c1cc2c(cc1C(F)(F)F)NC(Cc1ccccc1)NS2(=O)=O (stereo not shown) [Compound 11, bendroflumethiazide] | 500 nM

Biological target: T1, CA II (Homo sapiens, UniProt P00918)
Test: not given
Design: made in house
Details: literature value; read-out: Literature Ki or Kd, CA II; cited from earlier work

Row | SMILES | Kd
3 | NS(=O)(=O)c1ccccc1Cl [Compound 1, 2-chloro-benzenesulfonamide] | 1130 nM

Biological target: CA I (Homo sapiens, UniProt P00915)
Test: Fluorescence-based thermal shift assay (FTSA)
Details: not given

Chain of CA I (P00915 whole entry): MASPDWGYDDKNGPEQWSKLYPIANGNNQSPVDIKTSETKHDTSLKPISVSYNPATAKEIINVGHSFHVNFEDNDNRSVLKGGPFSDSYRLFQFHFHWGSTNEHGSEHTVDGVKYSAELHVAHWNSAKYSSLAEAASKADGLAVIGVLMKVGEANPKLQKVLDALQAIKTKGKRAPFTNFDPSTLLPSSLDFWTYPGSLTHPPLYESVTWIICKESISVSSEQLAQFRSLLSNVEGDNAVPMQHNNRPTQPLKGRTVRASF

Row | SMILES | Kd
4 | NS(=O)(=O)c1ccccc1Cl [Compound 1, 2-chloro-benzenesulfonamide] | 270 nM
5 | NS(=O)(=O)c1cc2c(cc1Cl)NC(C1CC3C=CC1C3)NS2(=O)=O (stereo not shown) [Compound 6, cyclothiazide] | 940 nM
6 | CN1C(CSCC(F)(F)F)Nc2cc(Cl)c(S(N)(=O)=O)cc2S1(=O)=O (stereo not shown) [Compound 7, polythiazide] | 250 nM
7 | C=CCSCC1Nc2cc(Cl)c(S(N)(=O)=O)cc2S(=O)(=O)N1 (stereo not shown) [Compound 9, althiazide] | 1600 nM
8 | NS(=O)(=O)c1cc2c(cc1C(F)(F)F)NC(Cc1ccccc1)NS2(=O)=O (stereo not shown) [Compound 11, bendroflumethiazide] | 5800 nM

Biological target: T1, CA II
Test: Fluorescence-based thermal shift assay (FTSA)
Details: not given

Row | SMILES | Kd
9 | NS(=O)(=O)c1ccccc1Cl [Compound 1, 2-chloro-benzenesulfonamide] | 560 nM
10 | NS(=O)(=O)c1cc2c(cc1Cl)NC(C1CC3C=CC1C3)NS2(=O)=O (stereo not shown) [Compound 6, cyclothiazide] | 1200 nM
11 | C=CCSCC1Nc2cc(Cl)c(S(N)(=O)=O)cc2S(=O)(=O)N1 (stereo not shown) [Compound 9, althiazide] | 790 nM
12 | NS(=O)(=O)c1cc2c(cc1C(F)(F)F)NC(Cc1ccccc1)NS2(=O)=O (stereo not shown) [Compound 11, bendroflumethiazide] | 1700 nM

Biological target: CA III (Homo sapiens, UniProt P07451)
Test: Fluorescence-based thermal shift assay (FTSA)
Details: not given

Chain of CA III (P07451 whole entry): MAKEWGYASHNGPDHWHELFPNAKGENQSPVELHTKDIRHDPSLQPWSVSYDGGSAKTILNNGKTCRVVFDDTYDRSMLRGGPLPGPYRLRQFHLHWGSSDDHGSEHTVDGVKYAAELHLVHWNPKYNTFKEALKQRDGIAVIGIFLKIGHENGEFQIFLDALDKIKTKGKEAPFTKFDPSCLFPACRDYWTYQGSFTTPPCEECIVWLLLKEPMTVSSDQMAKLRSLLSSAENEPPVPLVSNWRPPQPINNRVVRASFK

Row | SMILES | Kd
13 | NS(=O)(=O)c1ccccc1Cl [Compound 1, 2-chloro-benzenesulfonamide] | > 200000 nM
14 | CN1C(CSCC(F)(F)F)Nc2cc(Cl)c(S(N)(=O)=O)cc2S1(=O)=O (stereo not shown) [Compound 7, polythiazide] | > 200000 nM
15 | C=CCSCC1Nc2cc(Cl)c(S(N)(=O)=O)cc2S(=O)(=O)N1 (stereo not shown) [Compound 9, althiazide] | 51000 nM
16 | NS(=O)(=O)c1cc2c(cc1C(F)(F)F)NC(Cc1ccccc1)NS2(=O)=O (stereo not shown) [Compound 11, bendroflumethiazide] | > 200000 nM

Biological target: CA IV (Homo sapiens, UniProt P22748)
Test: Fluorescence-based thermal shift assay (FTSA)
Details: not given

Chain of CA IV (P22748 19-312): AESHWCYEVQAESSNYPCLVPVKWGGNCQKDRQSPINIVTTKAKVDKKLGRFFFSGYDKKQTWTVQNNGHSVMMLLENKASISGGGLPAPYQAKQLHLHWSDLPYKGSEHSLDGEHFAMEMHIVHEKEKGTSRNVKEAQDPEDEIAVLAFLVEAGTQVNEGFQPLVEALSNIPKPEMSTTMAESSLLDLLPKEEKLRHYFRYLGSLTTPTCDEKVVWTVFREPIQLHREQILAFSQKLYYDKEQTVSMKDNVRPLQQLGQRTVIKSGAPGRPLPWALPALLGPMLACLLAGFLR

Row | SMILES | Kd
17 | NS(=O)(=O)c1ccccc1Cl [Compound 1, 2-chloro-benzenesulfonamide] | 1200 nM
18 | NS(=O)(=O)c1cc2c(cc1Cl)NC(C1CC3C=CC1C3)NS2(=O)=O (stereo not shown) [Compound 6, cyclothiazide] | 270 nM
19 | CN1C(CSCC(F)(F)F)Nc2cc(Cl)c(S(N)(=O)=O)cc2S1(=O)=O (stereo not shown) [Compound 7, polythiazide] | 330 nM
20 | C=CCSCC1Nc2cc(Cl)c(S(N)(=O)=O)cc2S(=O)(=O)N1 (stereo not shown) [Compound 9, althiazide] | 330 nM
21 | NS(=O)(=O)c1cc2c(cc1C(F)(F)F)NC(Cc1ccccc1)NS2(=O)=O (stereo not shown) [Compound 11, bendroflumethiazide] | 1600 nM

Biological target: CA VA (Homo sapiens, UniProt P35218)
Test: Fluorescence-based thermal shift assay (FTSA)
Details: not given

Chain of CA VA (P35218 39-305): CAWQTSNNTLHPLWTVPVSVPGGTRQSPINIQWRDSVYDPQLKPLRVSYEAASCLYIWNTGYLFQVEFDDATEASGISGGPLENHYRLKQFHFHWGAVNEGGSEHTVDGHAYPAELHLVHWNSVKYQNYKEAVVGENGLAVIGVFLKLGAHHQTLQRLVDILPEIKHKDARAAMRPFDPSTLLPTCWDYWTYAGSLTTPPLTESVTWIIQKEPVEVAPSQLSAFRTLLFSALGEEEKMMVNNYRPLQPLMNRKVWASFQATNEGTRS

Row | SMILES | Kd
22 | NS(=O)(=O)c1ccccc1Cl [Compound 1, 2-chloro-benzenesulfonamide] | 320 nM
23 | NS(=O)(=O)c1cc2c(cc1Cl)NC(C1CC3C=CC1C3)NS2(=O)=O (stereo not shown) [Compound 6, cyclothiazide] | 1100 nM
24 | CN1C(CSCC(F)(F)F)Nc2cc(Cl)c(S(N)(=O)=O)cc2S1(=O)=O (stereo not shown) [Compound 7, polythiazide] | 5000 nM
25 | C=CCSCC1Nc2cc(Cl)c(S(N)(=O)=O)cc2S(=O)(=O)N1 (stereo not shown) [Compound 9, althiazide] | 1500 nM
26 | NS(=O)(=O)c1cc2c(cc1C(F)(F)F)NC(Cc1ccccc1)NS2(=O)=O (stereo not shown) [Compound 11, bendroflumethiazide] | 32000 nM

Biological target: CA VB (Homo sapiens, UniProt Q9Y2D0)
Test: Fluorescence-based thermal shift assay (FTSA)
Details: not given

Chain of CA VB (Q9Y2D0 34-317): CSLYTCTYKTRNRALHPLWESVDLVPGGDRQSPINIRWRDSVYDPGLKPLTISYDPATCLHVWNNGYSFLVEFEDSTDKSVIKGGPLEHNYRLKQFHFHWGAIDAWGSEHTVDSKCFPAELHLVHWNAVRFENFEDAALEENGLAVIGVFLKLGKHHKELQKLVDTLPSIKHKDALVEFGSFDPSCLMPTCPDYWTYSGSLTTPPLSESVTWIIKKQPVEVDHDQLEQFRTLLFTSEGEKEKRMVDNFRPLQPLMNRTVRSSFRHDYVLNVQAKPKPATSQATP

Row | SMILES | Kd
27 | NS(=O)(=O)c1ccccc1Cl [Compound 1, 2-chloro-benzenesulfonamide] | 470 nM
28 | NS(=O)(=O)c1cc2c(cc1Cl)NC(C1CC3C=CC1C3)NS2(=O)=O (stereo not shown) [Compound 6, cyclothiazide] | 140 nM
29 | CN1C(CSCC(F)(F)F)Nc2cc(Cl)c(S(N)(=O)=O)cc2S1(=O)=O (stereo not shown) [Compound 7, polythiazide] | 280 nM
30 | C=CCSCC1Nc2cc(Cl)c(S(N)(=O)=O)cc2S(=O)(=O)N1 (stereo not shown) [Compound 9, althiazide] | 61 nM
31 | NS(=O)(=O)c1cc2c(cc1C(F)(F)F)NC(Cc1ccccc1)NS2(=O)=O (stereo not shown) [Compound 11, bendroflumethiazide] | 360 nM

Biological target: CA VI (Homo sapiens, UniProt P23280)
Test: Fluorescence-based thermal shift assay (FTSA)
Details: not given

Chain of CA VI (P23280 18-308): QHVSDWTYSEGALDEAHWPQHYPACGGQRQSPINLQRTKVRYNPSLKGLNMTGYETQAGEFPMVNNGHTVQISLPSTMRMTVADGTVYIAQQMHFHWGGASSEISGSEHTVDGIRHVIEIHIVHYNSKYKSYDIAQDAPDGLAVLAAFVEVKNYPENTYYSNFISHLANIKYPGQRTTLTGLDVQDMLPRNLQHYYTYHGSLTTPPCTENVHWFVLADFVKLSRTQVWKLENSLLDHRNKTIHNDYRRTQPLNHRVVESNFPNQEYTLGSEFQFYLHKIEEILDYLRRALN

Row | SMILES | Kd
32 | NS(=O)(=O)c1ccccc1Cl [Compound 1, 2-chloro-benzenesulfonamide] | 2600 nM
33 | NS(=O)(=O)c1cc2c(cc1Cl)NC(C1CC3C=CC1C3)NS2(=O)=O (stereo not shown) [Compound 6, cyclothiazide] | 430 nM
34 | CN1C(CSCC(F)(F)F)Nc2cc(Cl)c(S(N)(=O)=O)cc2S1(=O)=O (stereo not shown) [Compound 7, polythiazide] | 580 nM
35 | C=CCSCC1Nc2cc(Cl)c(S(N)(=O)=O)cc2S(=O)(=O)N1 (stereo not shown) [Compound 9, althiazide] | 490 nM
36 | NS(=O)(=O)c1cc2c(cc1C(F)(F)F)NC(Cc1ccccc1)NS2(=O)=O (stereo not shown) [Compound 11, bendroflumethiazide] | 5300 nM

Biological target: CA VII (Homo sapiens, UniProt P43166)
Test: Fluorescence-based thermal shift assay (FTSA)
Details: not given

Chain of CA VII (P43166 whole entry): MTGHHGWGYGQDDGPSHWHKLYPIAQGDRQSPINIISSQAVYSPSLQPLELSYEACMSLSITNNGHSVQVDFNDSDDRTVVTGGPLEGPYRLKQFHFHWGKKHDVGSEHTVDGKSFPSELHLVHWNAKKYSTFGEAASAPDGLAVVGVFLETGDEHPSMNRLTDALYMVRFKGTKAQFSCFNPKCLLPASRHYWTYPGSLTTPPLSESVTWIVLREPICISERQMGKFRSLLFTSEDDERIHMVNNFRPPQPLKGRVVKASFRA

Row | SMILES | Kd
37 | NS(=O)(=O)c1ccccc1Cl [Compound 1, 2-chloro-benzenesulfonamide] | 400 nM
38 | NS(=O)(=O)c1cc2c(cc1Cl)NC(C1CC3C=CC1C3)NS2(=O)=O (stereo not shown) [Compound 6, cyclothiazide] | 500 nM
39 | CN1C(CSCC(F)(F)F)Nc2cc(Cl)c(S(N)(=O)=O)cc2S1(=O)=O (stereo not shown) [Compound 7, polythiazide] | 100 nM
40 | C=CCSCC1Nc2cc(Cl)c(S(N)(=O)=O)cc2S(=O)(=O)N1 (stereo not shown) [Compound 9, althiazide] | 250 nM
41 | NS(=O)(=O)c1cc2c(cc1C(F)(F)F)NC(Cc1ccccc1)NS2(=O)=O (stereo not shown) [Compound 11, bendroflumethiazide] | 440 nM

Biological target: CA IX (Homo sapiens, UniProt Q16790)
Test: Fluorescence-based thermal shift assay (FTSA)
Details: not given

Row | SMILES | Kd
42 | NS(=O)(=O)c1ccccc1Cl [Compound 1, 2-chloro-benzenesulfonamide] | 860 nM
43 | NS(=O)(=O)c1cc2c(cc1Cl)NC(C1CC3C=CC1C3)NS2(=O)=O (stereo not shown) [Compound 6, cyclothiazide] | 150 nM
44 | CN1C(CSCC(F)(F)F)Nc2cc(Cl)c(S(N)(=O)=O)cc2S1(=O)=O (stereo not shown) [Compound 7, polythiazide] | 100 nM
45 | C=CCSCC1Nc2cc(Cl)c(S(N)(=O)=O)cc2S(=O)(=O)N1 (stereo not shown) [Compound 9, althiazide] | 120 nM
46 | NS(=O)(=O)c1cc2c(cc1C(F)(F)F)NC(Cc1ccccc1)NS2(=O)=O (stereo not shown) [Compound 11, bendroflumethiazide] | 210 nM

Biological target: CA XII (Homo sapiens, UniProt O43570)
Test: Fluorescence-based thermal shift assay (FTSA)
Details: not given

Chain of CA XII (O43570 25-354): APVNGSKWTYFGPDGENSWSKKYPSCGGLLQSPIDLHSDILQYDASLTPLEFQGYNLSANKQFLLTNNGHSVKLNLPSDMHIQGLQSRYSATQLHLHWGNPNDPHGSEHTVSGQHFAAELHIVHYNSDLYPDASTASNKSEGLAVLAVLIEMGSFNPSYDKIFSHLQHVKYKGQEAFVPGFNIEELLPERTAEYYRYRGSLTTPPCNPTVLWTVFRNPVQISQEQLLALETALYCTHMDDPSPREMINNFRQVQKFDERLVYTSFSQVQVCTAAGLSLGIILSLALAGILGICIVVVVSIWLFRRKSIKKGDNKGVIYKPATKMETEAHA

Row | SMILES | Kd
47 | NS(=O)(=O)c1ccccc1Cl [Compound 1, 2-chloro-benzenesulfonamide] | 420 nM
48 | NS(=O)(=O)c1cc2c(cc1Cl)NC(C1CC3C=CC1C3)NS2(=O)=O (stereo not shown) [Compound 6, cyclothiazide] | 170 nM
49 | CN1C(CSCC(F)(F)F)Nc2cc(Cl)c(S(N)(=O)=O)cc2S1(=O)=O (stereo not shown) [Compound 7, polythiazide] | 1600 nM
50 | C=CCSCC1Nc2cc(Cl)c(S(N)(=O)=O)cc2S(=O)(=O)N1 (stereo not shown) [Compound 9, althiazide] | 120 nM
51 | NS(=O)(=O)c1cc2c(cc1C(F)(F)F)NC(Cc1ccccc1)NS2(=O)=O (stereo not shown) [Compound 11, bendroflumethiazide] | 480 nM

Biological target: CA XIII (Homo sapiens, UniProt Q8N1Q1)
Test: Fluorescence-based thermal shift assay (FTSA)
Details: not given

Chain of CA XIII (Q8N1Q1 whole entry): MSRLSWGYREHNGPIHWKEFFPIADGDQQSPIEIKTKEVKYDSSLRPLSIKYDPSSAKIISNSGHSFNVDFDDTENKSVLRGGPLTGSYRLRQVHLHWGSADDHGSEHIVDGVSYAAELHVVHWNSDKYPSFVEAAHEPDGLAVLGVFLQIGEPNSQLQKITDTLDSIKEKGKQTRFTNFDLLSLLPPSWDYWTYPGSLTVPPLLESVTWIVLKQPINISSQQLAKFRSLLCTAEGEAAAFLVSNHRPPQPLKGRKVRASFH

Row | SMILES | Kd
52 | NS(=O)(=O)c1ccccc1Cl [Compound 1, 2-chloro-benzenesulfonamide] | 570 nM
53 | NS(=O)(=O)c1cc2c(cc1Cl)NC(C1CC3C=CC1C3)NS2(=O)=O (stereo not shown) [Compound 6, cyclothiazide] | 430 nM
54 | CN1C(CSCC(F)(F)F)Nc2cc(Cl)c(S(N)(=O)=O)cc2S1(=O)=O (stereo not shown) [Compound 7, polythiazide] | 190 nM
55 | C=CCSCC1Nc2cc(Cl)c(S(N)(=O)=O)cc2S(=O)(=O)N1 (stereo not shown) [Compound 9, althiazide] | 150 nM
56 | NS(=O)(=O)c1cc2c(cc1C(F)(F)F)NC(Cc1ccccc1)NS2(=O)=O (stereo not shown) [Compound 11, bendroflumethiazide] | 910 nM

Biological target: CA XIV (Homo sapiens, UniProt Q9ULX7)
Test: Fluorescence-based thermal shift assay (FTSA)
Details: not given

Chain of CA XIV (Q9ULX7 16-337): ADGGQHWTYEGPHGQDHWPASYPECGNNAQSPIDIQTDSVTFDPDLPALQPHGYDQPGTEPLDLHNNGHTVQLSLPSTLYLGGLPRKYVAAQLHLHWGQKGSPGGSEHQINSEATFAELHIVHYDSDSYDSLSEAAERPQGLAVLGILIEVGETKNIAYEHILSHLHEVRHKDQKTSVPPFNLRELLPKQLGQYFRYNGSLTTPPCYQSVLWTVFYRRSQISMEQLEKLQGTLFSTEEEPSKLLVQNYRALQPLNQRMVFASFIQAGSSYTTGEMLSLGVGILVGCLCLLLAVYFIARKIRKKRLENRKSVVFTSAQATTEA

Row | SMILES | Kd
57 | NS(=O)(=O)c1ccccc1Cl [Compound 1, 2-chloro-benzenesulfonamide] | 430 nM
58 | NS(=O)(=O)c1cc2c(cc1Cl)NC(C1CC3C=CC1C3)NS2(=O)=O (stereo not shown) [Compound 6, cyclothiazide] | 360 nM
59 | CN1C(CSCC(F)(F)F)Nc2cc(Cl)c(S(N)(=O)=O)cc2S1(=O)=O (stereo not shown) [Compound 7, polythiazide] | 230 nM
60 | C=CCSCC1Nc2cc(Cl)c(S(N)(=O)=O)cc2S(=O)(=O)N1 (stereo not shown) [Compound 9, althiazide] | 51 nM
61 | NS(=O)(=O)c1cc2c(cc1C(F)(F)F)NC(Cc1ccccc1)NS2(=O)=O (stereo not shown) [Compound 11, bendroflumethiazide] | 130 nM
